Read-outs that look alike come from different tables or passages of the source.
Experiments:
Lassa (Josiah) virus = test system: Lassa (Josiah) virus; parameters: species or system guinea pigs; settings: guinea pig, in vivo
rJunin (rRomero) virus = test system: rJunin (rRomero) virus; parameters: species or system guinea pigs; settings: guinea pig, in vivo
Junin virus = test system: Junin virus; parameters: species or system guinea pigs; settings: guinea pig, in vivo
[1] = Pharmacokinetics and tolerability in guinea pigs (Example 1); settings: 50 mg/kg PO, blood by vena cava bleed

SMILES	animals surviving to the end of study (Lassa (Josiah) virus)	temperature findings (febrile, hypothermic) (Lassa (Josiah) virus)	temperature findings (febrile, hypothermic) (rJunin (rRomero) virus)	temperature findings (febrile, hypothermic) (Junin virus)	adequacy of the dose according to the pharmacokinetic results [1]	(highest) average weight loss (Lassa (Josiah) virus)	(highest) average weight loss (rJunin (rRomero) virus)	survival rate (rJunin (rRomero) virus)	average weight loss (Junin virus)	survival rate (Junin virus)	also measured
NC(=O)c1ncn([C@@H]2O[C@H](CO)[C@@H](O)[C@H]2O)n1 [Ribavirin, reference compound]	only one animal survived	Only one of the two animals that died was febrile once on day +17	Only one animal was intermittently febrile between days +16 and +27	Only 1 animal was febrile on day +27							average group weight loss up to (Lassa (Josiah) virus): up to 15.39%; animals surviving to the end of study (rJunin (rRomero) virus): all 3 animals survived; weight loss of the intermittently febrile animal (rJunin (rRomero) virus): 17.67%; weight loss up to (rJunin (rRomero) virus): up to 3.09%; animals surviving to the end of study (Junin virus): all 3 animals survived; weight loss up to (Junin virus): up to 5.2%
CCOc1cc(C(CS(C)(=O)=O)N2Cc3cccc(NC(=O)C4CC4)c3C2=O)ccc1OC (stereo not drawn) [Compound B, N-(2-(1-(3-ethoxy-4-methoxyphenyl)-2-(methylsulfonyl)ethyl)-3-oxoisoindolin-4-yl)cyclopropanecarboxamide]		All of the animals in this group except the survivor were febrile starting day +8 thru +16 and only one was recorded as hypothermic before death	All of the animals in this group except the survivor were febrile starting day +7 thru +11 and four were recorded as hypothermic before death	Most of the animals in this group were febrile starting at day +7 but none were recorded as hypothermic	needed to be increased	13.08%	12.41%	11%	4.4%	17%	survival rate (Lassa (Josiah) virus): 13%
COc1ccc(C(CC(N)=O)N2Cc3ccccc3C2=O)cc1OC (stereo not drawn) [Compound A, 3-(3,4-dimethoxy-phenyl)-3-(1-oxo-1,3-dihydro-isoindol-2-yl)-propionamide]	None of the animals survived	All animals were febrile between day +7 and +19 and two were hypothermic before death	All animals that died were febrile between day +7 and +15 and four out of six were hypothermic before death	All animals that died were febrile between day +7 and +10 and two were hypothermic on day +14	within range	12.17%	1.33%	33%	0.69%	50%	(highest) average weight loss (Lassa (Josiah) virus; po, 50 mg/kg): 5.36%; survival rate (Lassa (Josiah) virus; po, 50 mg/kg): 44%; temperature findings (febrile, hypothermic) (Lassa (Josiah) virus; po, 50 mg/kg): All animals, including the survivors, were febrile between day +7 and +17 and none of the animals were hypothermic before death; (highest) average weight loss (rJunin (rRomero) virus; po, 50 mg/kg): 5.89%; survival rate (rJunin (rRomero) virus; po, 50 mg/kg): 22%; temperature findings (febrile, hypothermic) (rJunin (rRomero) virus; po, 50 mg/kg): All animals that died were febrile between day +5 and +13 and three out of seven were hypothermic before death

Source: patent publication US20160289188A1, “COMPOSITIONS AND METHODS FOR THE TREATMENT OF VIRAL DISEASES WITH PDE4 MODULATORS” (priority 2013, published 2016)
